Reference: US20220274973A1, “Methods And Compositions For Treating Sickle Cell Disease With A Ferroportin Inhibitor (VIT-2763)” (Vifor (International) AG, priority 2019, published 2022)

Experiment: Rodent PK studies, oral dosing
Type: in vivo

Q: Which systemic availability does the source give for `O=C(NCc1ncccc1F)c1coc(CCNCCc2nc3ccccc3[nH]2)n1` [Compound 127] here?
A: The systemic availability was “systemically available”.
